As a reminder, the pIC50 is the negative decadic logarithm of the IC50, by convention in mol/L. Read a low pIC50 as a high IC50.

The results in this text go back to ChEMBL document CHEMBL1155899, “Cucurbitane-type triterpenoids from the stems of momordica charantia” (J Nat Prod, 2008).

pIC50: −log10 of the molar value. A value given as a limit tells only on which side of the number the result lay.

The subject of this assay is SK-HEP1. Put plainly: Cytotoxicity against human SK-Hep1 cells by MTT assay. In kind it is functional, cell-based.
For the molecule `CC(C)=CC(=O)C[C@@H](C)[C@H]1CC[C@@]2(C)[C@@H]3C(=O)C=C4[C@@H](CCC(=O)C4(C)C)[C@]3(C)CC[C@]12C`, the pIC50 was below 4.00. On to `C[C@H](C/C=C/C(C)(C)O)[C@H]1CC[C@@]2(C)[C@@H]3[C@@H](O)C=C4[C@@H](CC[C@H](O)C4(C)C)[C@]3(C)CC[C@]12C`, for which the pIC50 is below 4.00. For `CO[C@H]1C=C2[C@@H](CC[C@H](O)C2(C)C)[C@]2(C)CC[C@]3(C)[C@@H]([C@H](C)C/C=C/C(C)(C)O)CC[C@@]3(C)[C@H]12` the value was below 4.00. Under `COc1cc([C@@H]2c3cc4c(cc3[C@@H](O[C@@H]3O[C@@H]5CO[C@@H](C)O[C@H]5[C@H](O)[C@H]3O)[C@H]3COC(=O)[C@H]23)OCO4)cc(OC)c1O` [ETOPOSIDE] stands 4.30; under `C[C@H](C/C=C/C(C)(C)O)[C@H]1CC[C@@]2(C)[C@@H]3C=CC4=C(CC[C@H](O)C4(C)C)[C@]3(C)CC[C@]12C`, below 4.00; under `C[C@H](C/C=C/C(C)(C)O)[C@H]1CC[C@@]2(C)[C@@H]3[C@@H](O)C=C4[C@@H](CC[C@H](O)C4(C)C)[C@]3(C=O)CC[C@]12C`, 4.01.

As to `CO[C@H]1C=C2[C@@H](CC[C@H](O)C2(C)C)[C@]2(C)CC[C@]3(C)[C@@H]([C@H](C)C/C=C/C(C)(C)OC)CC[C@@]3(C)[C@H]12`, the pIC50 is below 4.00. In turn, `CO[C@H]1C=C2[C@@H](CC[C@H](OC(C)=O)C2(C)C)[C@]2(C)CC[C@]3(C)[C@@H]([C@H](C)C/C=C/C(C)(C)O)CC[C@@]3(C)[C@H]12` gave a pIC50 below 4.00. For the molecule `COC(C)(C)/C=C/C[C@@H](C)[C@H]1CC[C@@]2(C)[C@@H]3[C@@H](O)C=C4[C@@H](CC[C@H](O)C4(C)C)[C@]3(C=O)CC[C@]12C`, the pIC50 was 4.04.
